Key:
Assay type in all cases: in vivo
Details in all cases: evaluated after 13 days
[1] = system: Ipomoea hederacea (IPOHE); experiment: Post-emergence herbicide test, glasshouse, percentage damage
Procedure: (§1) Seeds of a variety of test species are sown in standard soil in pots (Lolium perenne (LOLPE), Solanum nigrum (SOLNI), Amaranthus retoflexus (AMARE), Setaria faberi (SETFA), Echinochloa crus-galli (ECHCG), Ipomoea hederacea (IPOHE)). After cultivation for one day (pre-emergence) or after 8 days cultivation (post-emergence) under controlled conditions in a glasshouse (at 24/16° C., day/night; 14 hours light; 65% humidity), the plants are sprayed with an aqueous spray solution derived from the formulation of the technical active ingredient in acetone/water (50:50) solution containing 0.5% Tween 20 (polyoxyethelyene sorbitan monolaurate, CAS RN 9005-64-5). Compounds are applied at 500 g/ha unless otherwise stated. The test plants are then grown in a glasshouse under controlled conditions in a glasshouse (at 24/16° C., day/night; 14 hours light; 65% humidity) and watered twice daily. After 13 days for pre and post-emergence, the test is evaluated for the percentage damage caused to the plant. The biological activities are shown in the following table on a five point scale (5=81-100%; 4=61-80%; 3=41-60%; 2=21-40%; 1=0-20%).

Setaria faberi (SETFA) [2] = experiment: as above
Procedure: as §1

[3] = system: Echinochloa crus-galli (ECHCG); experiment: as above
Procedure: as §1

[4] = system: Amaranthus retoflexus (AMARE); experiment: as above
Procedure: as §1

Lolium perenne (LOLPE) [5] = experiment: as above
Procedure: as §1

Solanum nigrum (SOLNI) [6] = experiment: as above
Procedure: as §1

[7] = system: Ipomoea hederacea (IPOHE); experiment: Pre-emergence herbicide test, glasshouse, percentage damage
Procedure: as §1

Setaria faberi (SETFA) [8] = experiment: as above
Procedure: as §1

[9] = system: Echinochloa crus-galli (ECHCG); experiment: as above
Procedure: as §1

[10] = system: Amaranthus retoflexus (AMARE); experiment: as above
Procedure: as §1

Lolium perenne (LOLPE) [11] = experiment: as above
Procedure: as §1

Solanum nigrum (SOLNI) [12] = experiment: as above
Procedure: as §1

Row | SMILES | percentage damage caused to the plant, IPOHE ([1]; 500 g/ha) | percentage damage caused to the plant, SETFA (Setaria faberi (SETFA) [2]; 500 g/ha) | percentage damage caused to the plant, ECHCG ([3]; 500 g/ha) | percentage damage caused to the plant, AMARE ([4]; 500 g/ha) | percentage damage caused to the plant, LOLPE (Lolium perenne (LOLPE) [5]; 500 g/ha) | percentage damage caused to the plant, SOLNI (Solanum nigrum (SOLNI) [6]; 500 g/ha) | Pre-emergence Test IPOHE percentage damage (five point scale) ([7]; rate 500 g/ha) | Pre-emergence Test SETFA percentage damage (five point scale) (Setaria faberi (SETFA) [8]; rate 500 g/ha) | Pre-emergence Test ECHCG percentage damage (five point scale) ([9]; rate 500 g/ha) | Pre-emergence Test AMARE percentage damage (five point scale) ([10]; rate 500 g/ha) | Pre-emergence Test LOLPE percentage damage (five point scale) (Lolium perenne (LOLPE) [11]; rate 500 g/ha) | Pre-emergence Test SOLNI percentage damage (five point scale) (Solanum nigrum (SOLNI) [12]; rate 500 g/ha) | percentage damage caused to the plant, IPOHE ([1]; 250 g/ha) | percentage damage caused to the plant, SETFA (Setaria faberi (SETFA) [2]; 250 g/ha) | percentage damage caused to the plant, ECHCG ([3]; 250 g/ha) | percentage damage caused to the plant, AMARE ([4]; 250 g/ha) | Pre-emergence Test IPOHE percentage damage (five point scale) ([7]; rate 250 g/ha) | Pre-emergence Test SETFA percentage damage (five point scale) (Setaria faberi (SETFA) [8]; rate 250 g/ha) | Pre-emergence Test ECHCG percentage damage (five point scale) ([9]; rate 250 g/ha) | Pre-emergence Test AMARE percentage damage (five point scale) ([10]; rate 250 g/ha) | further results
1 | Fc1cc(Cl)cnc1Oc1cccc(F)c1-c1cc(C(F)F)no1 [Compound A1, 5-[2-[(5-CHLORO-3-FLUORO-2-PYRIDYL)OXY]-6-FLUORO-PHENYL]-3-(DIFLUOROMETHYL)ISOXAZOLE] | 5 (5=81-100%) | 5 (5=81-100%) | 5 (5=81-100%) | 5 (5=81-100%) | 5 (5=81-100%) | 5 (5=81-100%) | 5 (5=81-100%) | 5 (5=81-100%) | 5 (5=81-100%) | 5 (5=81-100%) | 5 (5=81-100%) | 5 (5=81-100%) | – | – | – | – | – | – | – | – | –
2 | O=[N+]([O-])c1ccc(Oc2cccc(F)c2-c2cc(C(F)F)no2)nc1 [Compound A2, 3-(DIFLUOROMETHYL)-5-[2-FLUORO-6-[(5-NITRO-2-PYRIDYL)OXY]PHENYL]ISOXAZOLE] | 4 (4=61-80%) | 5 (5=81-100%) | 5 (5=81-100%) | 5 (5=81-100%) | 5 (5=81-100%) | 5 (5=81-100%) | 2 (2=21-40%) | 5 (5=81-100%) | 5 (5=81-100%) | 5 (5=81-100%) | 4 (4=61-80%) | 4 (4=61-80%) | – | – | – | – | – | – | – | – | –
3 | Fc1cc(Cl)cnc1Oc1cccc(F)c1-c1ncc(C(F)(F)F)o1 [Compound A3, 2-[2-[(5-CHLORO-3-FLUORO-2-PYRIDYL)OXY]-6-FLUORO-PHENYL]-5-(TRIFLUOROMETHYL)OXAZOLE] | 1 (1=0-20%) | 4 (4=61-80%) | 1 (1=0-20%) | 2 (2=21-40%) | 1 (1=0-20%) | 3 (3=41-60%) | 1 (1=0-20%) | 3 (3=41-60%) | 3 (3=41-60%) | 3 (3=41-60%) | 1 (1=0-20%) | 3 (3=41-60%) | – | – | – | – | – | – | – | – | –
4 | Fc1cccc(Oc2ncc(Cl)cc2Cl)c1-c1cc(C(F)F)no1 [Compound A4] | 1 (1=0-20%) | 3 (3=41-60%) | 1 (1=0-20%) | 5 (5=81-100%) | 1 (1=0-20%) | 5 (5=81-100%) | 1 (1=0-20%) | 2 (2=21-40%) | 2 (2=21-40%) | 3 (3=41-60%) | 1 (1=0-20%) | 3 (3=41-60%) | – | – | – | – | – | – | – | – | –
5 | Fc1cc(Cl)cnc1Oc1cccc(I)c1-n1cc(C(F)(F)F)cn1 [Compound A57, 5-chloro-3-fluoro-2-[3-iodo-2-[4-(trifluoromethyl)pyrazol-1-yl]phenoxy]pyridine] | – | – | – | – | – | – | – | – | – | – | – | – | – | – | – | – | – | – | – | – | percentage damage caused to the plant, IPOHE ([1]; 1000 g/ha): 2 (2=21-40%); percentage damage caused to the plant, SETFA (Setaria faberi (SETFA) [2]; 1000 g/ha): 4 (4=61-80%); percentage damage caused to the plant, ECHCG ([3]; 1000 g/ha): 1 (1=0-20%); percentage damage caused to the plant, AMARE ([4]; 1000 g/ha): 5 (5=81-100%); percentage damage caused to the plant, LOLPE (Lolium perenne (LOLPE) [5]; 1000 g/ha): 1 (1=0-20%); percentage damage caused to the plant, SOLNI (Solanum nigrum (SOLNI) [6]; 1000 g/ha): 5 (5=81-100%); Pre-emergence Test SETFA percentage damage (five point scale) (Setaria faberi (SETFA) [8]; rate 1000 g/ha): 5 (5=81-100%); Pre-emergence Test ECHCG percentage damage (five point scale) ([9]; rate 1000 g/ha): 1 (1=0-20%); Pre-emergence Test AMARE percentage damage (five point scale) ([10]; rate 1000 g/ha): 5 (5=81-100%); Pre-emergence Test LOLPE percentage damage (five point scale) (Lolium perenne (LOLPE) [11]; rate 1000 g/ha): 1 (1=0-20%); Pre-emergence Test SOLNI percentage damage (five point scale) (Solanum nigrum (SOLNI) [12]; rate 1000 g/ha): 4 (4=61-80%)
6 | Fc1cc(Cl)cnc1Oc1ccccc1-c1ccc(Cl)s1 [Compound A66, 5-chloro-2-[2-(5-chloro-2-thienyl)phenoxy]-3-fluoro-pyridine] | – | – | – | – | – | – | – | – | – | – | – | – | – | – | – | – | – | – | – | – | percentage damage caused to the plant, IPOHE ([1]; 1000 g/ha): 2 (2=21-40%); percentage damage caused to the plant, SETFA (Setaria faberi (SETFA) [2]; 1000 g/ha): 2 (2=21-40%); percentage damage caused to the plant, ECHCG ([3]; 1000 g/ha): 3 (3=41-60%); percentage damage caused to the plant, AMARE ([4]; 1000 g/ha): 5 (5=81-100%); percentage damage caused to the plant, LOLPE (Lolium perenne (LOLPE) [5]; 1000 g/ha): 1 (1=0-20%); percentage damage caused to the plant, SOLNI (Solanum nigrum (SOLNI) [6]; 1000 g/ha): 5 (5=81-100%)
7 | Cc1ccc(C#N)nc1Oc1cccc(F)c1-c1cc(C(F)F)no1 [Compound A76] | – | – | – | – | – | – | – | – | – | – | – | – | 3 (3=41-60%) | 1 (1=0-20%) | 1 (1=0-20%) | 2 (2=21-40%) | – | – | – | – | percentage damage caused to the plant, LOLPE (Lolium perenne (LOLPE) [5]; 250 g/ha): 1 (1=0-20%); percentage damage caused to the plant, SOLNI (Solanum nigrum (SOLNI) [6]; 250 g/ha): 4 (4=61-80%)
8 | FC(F)c1cc(-c2c(Br)cccc2Oc2ccc(Cl)cn2)on1 [Compound A100] | – | – | – | – | – | – | – | – | – | – | – | – | 2 (2=21-40%) | 5 (5=81-100%) | 5 (5=81-100%) | 5 (5=81-100%) | 1 (1=0-20%) | 5 (5=81-100%) | 2 (2=21-40%) | 5 (5=81-100%) | –
9 | Cc1noc(-c2ccccc2Oc2ncc(Cl)cc2F)n1 [Compound A126] | – | – | – | – | – | – | – | – | – | – | – | – | – | – | – | – | 1 (1=0-20%) | 3 (3=41-60%) | 4 (4=61-80%) | 5 (5=81-100%) | –
10 | Fc1cc(Cl)cnc1Oc1ccccc1-c1cc(C(F)F)on1 [Compound A163] | – | – | – | – | – | – | – | – | – | – | – | – | 3 (3=41-60%) | 5 (5=81-100%) | 5 (5=81-100%) | 5 (5=81-100%) | 1 (1=0-20%) | 5 (5=81-100%) | 4 (4=61-80%) | 5 (5=81-100%) | –
11 | Fc1cc(Cl)cnc1Oc1ccccc1-n1cc(C(F)F)nn1 [Compound A169] | – | – | – | – | – | – | – | – | – | – | – | – | 5 (5=81-100%) | 5 (5=81-100%) | 5 (5=81-100%) | 5 (5=81-100%) | 5 (5=81-100%) | 5 (5=81-100%) | 5 (5=81-100%) | 5 (5=81-100%) | –

From US12227495B2, “Herbicidal compounds” (SYNGENTA CROP PROTECTION AG, priority 2018, dated 2025)
